These results are taken from US8669251B2, “8-fluorophthalazin-1(2H)-one compounds” (Genentech, Inc., priority 2011, dated 2014).

The experiment has as its system production of CD69 by B lymphocytes in human whole blood. Briefly: CD69 Whole Blood Assay (CD69 Hu Blood FACS). The class given is cell-based. The conditions noted are these: human whole blood activated with goat F(ab')2 anti-human IgM, 20 hours; CD69 on CD20 positive cells by FACS; Table 2. The source says: A CD69 Whole Blood Assay can be conducted on Formula I compounds to determine the ability of compounds to inhibit the production of CD69 by B lymphocytes in human whole blood activated by crosslinking surface IgM with goat F(ab′)2 anti-human IgM (Example 907). CD69 is a type II C-type lectin involved in lymphocyte migration and cytokine secretion. CD69 expression represents one of the earliest available indicators of leukocyte activation and its rapid induction occurs through transcriptional activation (Vazquez et al (2009) Jour. of Immunology Published Oct. 19, 2009, doi:10.4049/jimmunol.0900839). Concentration-dependent inhibition of antigen receptor stimulation by selective Btk inhibitors induces cell surface expression of the lymphocyte activation marker CD69 (Honigberg et al (2010) Proc. Natl. Acad. Sci. 107(29):13075-13080). Thus, CD69 inhibition by selective Btk inhibitors may be correlated with therapeutic efficacy of certain B-cell disorders.
Human blood is obtained from healthy volunteers, with the following restrictions: 1 week drug-free, non-smokers. Blood (approximately 20 mls to test 8 compounds) is collected by venipuncture into Vacutainer® (Becton, Dickinson and Co.) tubes with sodium heparin.
Solutions of Formula I and II compounds at 10 mM in DMSO are diluted 1:10 in 100% DMSO, then are diluted by three-fold serial dilutions in 100% DMSO for a ten point dose-response curve. The compounds are further diluted 1:10 in PBS and then an aliquot of 5.5 μl of each compound is added in duplicate to a 2 ml 96-well plate; 5.5 μl of 10% DMSO in PBS is added as control and no-stimulus wells. Human whole blood —HWB (100 μl) is added to each well. After mixing the plates are incubated at 37° C., 5% CO2, 100% humidity for 30 minutes. Goat F(ab′)2 anti-human IgM (10 μl of a 500 μg/ml solution, 50 μg/ml final) is added to each well (except the no-stimulus wells) with mixing and the plates are incubated for an additional 20 hours. At the end of the 20 hour incubation, samples are incubated with fluorescent labeled antibodies for 30 minutes, at 37° C., 5% CO2, 100% humidity. Include induced control, unstained and single stains for compensation adjustments and initial voltage settings. Samples are then lysed with PharM Lyse™ (BD Biosciences Pharmingen) according to the manufacturer's instructions. Samples are then transferred to a 96 well plate suitable to be run on the BD Biosciences HTS 96 well system on the LSRII machine. Data acquired and Mean Fluorescence Intensity values were obtained using BD Biosciences DIVA Software. Results are initially analyzed by FACS analysis software (Flow Jo). […] The inhibitory concentration (IC50, IC70, IC90) values are calculated by Prism version 5, using a nonlinear regression curve fit.
`Cn1ccc(Nc2cc(-c3ccnc(-n4ncc5cc(C(C)(C)C)cc(F)c5c4=O)c3CO)cn(C)c2=O)n1` [Compound 140, 6-tert-butyl-8-fluoro-2-[3-(hydroxymethyl)-4-[1-methyl-5-[(1-methylpyrazol-3-yl)amino]-6-oxo-3-pyridyl]-2-pyridyl]phthalazin-1-one] came in with a CD69 Hu Blood FACS (IC70) of 68 nM. Next, `Cc1cc(Nc2cc(-c3ccnc(-n4ncc5cc(C(C)(C)C)cc(F)c5c4=O)c3CO)nn(C)c2=O)no1` [Compound 141, 6-tert-butyl-8-fluoro-2-[3-(hydroxymethyl)-4-[1-methyl-5-[(5-methylisoxazol-3-yl)amino]-6-oxo-pyridazin-3-yl]-2-pyridyl]phthalazin-1-one]: 295 nM. Next, `CCn1ccc(Nc2cc(-c3ccnc(-n4ncc5cc(C(C)(C)C)cc(F)c5c4=O)c3CO)cn(C)c2=O)n1` [Compound 142, 6-tert-butyl-2-[4-[5-[(1-ethylpyrazol-3-yl)amino]-1-methyl-6-oxo-3-pyridyl]-3-(hydroxymethyl)-2-pyridyl]-8-fluoro-phthalazin-1-one]: 168 nM; `COCc1cc(Nc2cc(-c3ccnc(-n4ncc5cc(C(C)(C)C)cc(F)c5c4=O)c3CO)cn(C)c2=O)nn1C` [Compound 143, 6-tert-butyl-8-fluoro-2-[3-(hydroxymethyl)-4-[5-[[5-(methoxymethyl)-1-methyl-pyrazol-3-yl]amino]-1-methyl-6-oxo-3-pyridyl]-2-pyridyl]phthalazin-1-one]: 13.1 nM. `Cn1nc(Nc2cc(-c3ccnc(-n4ncc5cc(C(C)(C)C)cc(F)c5c4=O)c3CO)cn(C)c2=O)cc1C(=O)N1CCCC1` [Compound 144, 6-tert-butyl-8-fluoro-2-[3-(hydroxymethyl)-4-[1-methyl-5-[[1-methyl-5-(pyrrolidine-1-carbonyl)pyrazol-3-yl]amino]-6-oxo-3-pyridyl]-2-pyridyl]phthalazin-1-one] displayed a CD69 Hu Blood FACS (IC70) of 20.3 nM. In the case of `Cc1cc(Nc2cc(-c3ccnc(-n4ncc5cc(C(C)(C)C)cc(F)c5c4=O)c3CO)cn(C)c2=O)nn1CC(F)F` [Compound 145, 6-tert-butyl-2-[4-[5-[[1-(2,2-difluoroethyl)-5-methyl-pyrazol-3-yl]amino]-1-methyl-6-oxo-3-pyridyl]-3-(hydroxymethyl)-2-pyridyl]-8-fluoro-phthalazin-1-one], the CD69 Hu Blood FACS (IC70) was 163 nM. The same measure for `CN1Cc2cc(Nc3cc(-c4ccnc(-n5ncc6cc(C(C)(C)C)cc(F)c6c5=O)c4CO)cn(C)c3=O)nn2CC1=O` [Compound 146, 6-tert-butyl-8-fluoro-2-[3-(hydroxymethyl)-4-[1-methyl-5-[(5-methyl-6-oxo-4,7-dihydropyrazolo[1,5-a]pyrazin-2-yl)amino]-6-oxo-3-pyridyl]-2-pyridyl]phthalazin-1-one]: 20.9 nM; for `Cn1cc(-c2ccnc(-n3ncc4cc(C(C)(C)C)cc(F)c4c3=O)c2CO)cc(Nc2ccc(N3CC(O)C3)cn2)c1=O` [Compound 147, 6-tert-butyl-8-fluoro-2-[4-[5-[[5-(3-hydroxyazetidin-1-yl)-2-pyridyl]amino]-1-methyl-6-oxo-3-pyridyl]-3-(hydroxymethyl)-2-pyridyl]phthalazin-1-one]: 33.3 nM; for `CC(C)C(=O)N1CCn2nc(Nc3cc(-c4ccnc(-n5ncc6cc(C(C)(C)C)cc(F)c6c5=O)c4CO)cn(C)c3=O)cc2C1` [Compound 148, 6-tert-butyl-8-fluoro-2-[3-(hydroxymethyl)-4-[1-methyl-5-[[5-(2-methylpropanoyl)-6,7-dihydro-4H-pyrazolo[1,5-a]pyrazin-2-yl]amino]-6-oxo-3-pyridyl]-2-pyridyl]phthalazin-1-one]: 13.9 nM. Consider `Cn1cc(Nc2cc(-c3ccnc(-n4ncc5cc(C(C)(C)C)cc(F)c5c4=O)c3CO)cn(C)c2=O)nn1` [Compound 149, 6-tert-butyl-8-fluoro-2-[3-(hydroxymethyl)-4-[1-methyl-5-[(1-methyltriazol-4-yl)amino]-6-oxo-3-pyridyl]-2-pyridyl]phthalazin-1-one], for which the CD69 Hu Blood FACS (IC70) came out at 93 nM. The same measure for `CC1OCCn2nc(Nc3cc(-c4ccnc(-n5ncc6cc(C(C)(C)C)cc(F)c6c5=O)c4CO)cn(C)c3=O)cc21` (centres unmarked) [Compound 150, 6-tert-butyl-8-fluoro-2-[3-(hydroxymethyl)-4-[1-methyl-5-[(4-methyl-6,7-dihydro-4H-pyrazolo[5,1-c][1,4]oxazin-2-yl)amino]-6-oxo-3-pyridyl]-2-pyridyl]phthalazin-1-one]: 42.8 nM; for `CC(C)N1Cc2cc(Nc3cc(-c4ccnc(-n5ncc6cc(C(C)(C)C)cc(F)c6c5=O)c4CO)cn(C)c3=O)nn2CC1=O` [Compound 151, 6-tert-butyl-8-fluoro-2-[3-(hydroxymethyl)-4-[5-[(5-isopropyl-6-oxo-4,7-dihydropyrazolo[1,5-a]pyrazin-2-yl)amino]-1-methyl-6-oxo-3-pyridyl]-2-pyridyl]phthalazin-1-one]: 14.1 nM. `Cn1cc(-c2ccnc(-n3ncc4cc(C(C)(C)C)cc(F)c4c3=O)c2CO)cc(Nc2cc[nH]n2)c1=O` [Compound 152, 6-tert-butyl-8-fluoro-2-[3-(hydroxymethyl)-4-[1-methyl-6-oxo-5-(1H-pyrazol-3-ylamino)-3-pyridyl]-2-pyridyl]phthalazin-1-one] had a CD69 Hu Blood FACS (IC70) of 45.9 nM. In turn, `CN1CCn2nc(Nc3cc(-c4ccnc(-n5ncc6cc(C(C)(C)C)cc(F)c6c5=O)c4CO)nn(C)c3=O)cc2C1` [Compound 153, 6-tert-butyl-8-fluoro-2-[3-(hydroxymethyl)-4-[1-methyl-5-[(5-methyl-6,7-dihydro-4H-pyrazolo[1,5-a]pyrazin-2-yl)amino]-6-oxo-pyridazin-3-yl]-2-pyridyl]phthalazin-1-one] returned a CD69 Hu Blood FACS (IC70) of 59.6 nM. As to `Cn1nc(-c2ccnc(-n3ncc4cc(C(C)(C)C)cc(F)c4c3=O)c2CO)cc(Nc2cc3n(n2)CCN(C2COC2)C3)c1=O` [Compound 155, 6-tert-butyl-8-fluoro-2-[3-(hydroxymethyl)-4-[1-methyl-5-[[5-(oxetan-3-yl)-6,7-dihydro-4H-pyrazolo[1,5-a]pyrazin-2-yl]amino]-6-oxo-pyridazin-3-yl]-2-pyridyl]phthalazin-1-one], the CD69 Hu Blood FACS (IC70) amounted to 26.6 nM. In turn, `Cn1cc(-c2ccnc(-n3ncc4cc(C(C)(C)C)cc(F)c4c3=O)c2CO)cc(Nc2ccc(C(C)(C)C#N)cn2)c1=O` [Compound 156, 2-[6-[[5-[2-(6-tert-butyl-8-fluoro-1-oxo-phthalazin-2-yl)-3-(hydroxymethyl)-4-pyridyl]-1-methyl-2-oxo-3-pyridyl]amino]-3-pyridyl]-2-methyl-propanenitrile] showed a CD69 Hu Blood FACS (IC70) of 31 nM. `Cc1cc(Nc2cc(-c3ccnc(-n4ncc5cc(C(C)(C)C)cc(F)c5c4=O)c3CO)cn(C)c2=O)ns1` [Compound 157, 6-tert-butyl-8-fluoro-2-[3-(hydroxymethyl)-4-[1-methyl-5-[(5-methylisothiazol-3-yl)amino]-6-oxo-3-pyridyl]-2-pyridyl]phthalazin-1-one] registered a CD69 Hu Blood FACS (IC70) of 157 nM.

In turn, `CCc1cc(Nc2cc(-c3ccnc(-n4ncc5cc(C(C)(C)C)cc(F)c5c4=O)c3CO)cn(C)c2=O)no1` [Compound 158, 6-tert-butyl-2-[4-[5-[(5-ethylisoxazol-3-yl)amino]-1-methyl-6-oxo-3-pyridyl]-3-(hydroxymethyl)-2-pyridyl]-8-fluoro-phthalazin-1-one] registered a CD69 Hu Blood FACS (IC70) of 66.7 nM. With `Cn1cc(-c2ccnc(-n3ncc4cc(C(C)(C)C)cc(F)c4c3=O)c2CO)cc(Nc2cnn(C(F)F)n2)c1=O` [Compound 159, 6-tert-butyl-2-[4-[5-[[2-(difluoromethyl)triazol-4-yl]amino]-1-methyl-6-oxo-3-pyridyl]-3-(hydroxymethyl)-2-pyridyl]-8-fluoro-phthalazin-1-one], the CD69 Hu Blood FACS (IC70) worked out at 208 nM. The same measure for `Cn1cc(-c2ccnc(-n3ncc4cc(C(C)(C)C)cc(F)c4c3=O)c2CO)cc(Nc2cnccn2)c1=O` [Compound 160, 6-tert-butyl-8-fluoro-2-[3-(hydroxymethyl)-4-[1-methyl-6-oxo-5-(pyrazin-2-ylamino)-3-pyridyl]-2-pyridyl]phthalazin-1-one]: 116 nM.
